How the values were obtained:
M1 muscarinic receptor = target: T1, M1 muscarinic receptor (Homo sapiens, UniProt P11229); experiment: Functional mobilization of intracellular calcium (FLIPR) in CHO cells expressing M1 muscarinic receptor; format: cell-based; conditions: for M1 Activity: CHO cells expressing M1, calcium mobilization; for Emax: CHO, 100% efficacy is the maximum response obtained with the Carbachol control
T1 construct: expressed in transfected cells; host or cells: CHO (M1-CHO recombinant cell line)
T1 sequence (P11229 1-460): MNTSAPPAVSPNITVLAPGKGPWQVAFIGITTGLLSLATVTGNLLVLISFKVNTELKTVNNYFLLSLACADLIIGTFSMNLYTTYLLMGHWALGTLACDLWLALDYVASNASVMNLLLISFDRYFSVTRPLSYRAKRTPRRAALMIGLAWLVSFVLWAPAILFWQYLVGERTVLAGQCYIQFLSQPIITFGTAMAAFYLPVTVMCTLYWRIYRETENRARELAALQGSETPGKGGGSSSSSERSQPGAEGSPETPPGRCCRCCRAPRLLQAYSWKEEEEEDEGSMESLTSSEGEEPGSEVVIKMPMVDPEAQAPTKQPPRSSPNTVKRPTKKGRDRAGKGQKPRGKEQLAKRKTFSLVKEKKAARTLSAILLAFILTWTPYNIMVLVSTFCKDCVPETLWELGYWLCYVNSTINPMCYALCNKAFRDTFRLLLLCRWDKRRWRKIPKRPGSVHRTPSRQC
Experimental: (§1) VI. Assays for Detecting and Measuring Inhibition Properties of Compounds Functional Mobilization of Intracellular Calcium to Determine Muscarinic Receptor Activity:
(§2) CHO cells expressing muscarinic receptors (M1 to M5) are grown as monolayers in tissue culture flasks at 37° C. in a humidified atmosphere containing 5% CO2 and passaged every 3-5 days. The growth media is Dulbecco's modified eagles medium (DMEM, Gibco Cat# 12430-054), containing 25 mM Hepes and supplemented with Fetal Bovine Serum (Hyclone, cat# SH30071.03), 0.1 mM of MEM non-essential amino acids (GIBCO, Cat# 11140-050), 1 mM MEM Sodium Pyruvate (GIBCO Cat# 11360-070) and 100 units/ml of Penicillin G and 100 μg/ml of Streptomycin (GIBCO Cat# 15140-122). The recombinant muscarinic receptor cell lines are grown under antibiotic pressure with media containing 25 μg/ml zeocin and 500 μg/ml G418 (M1-CHO), 4 μg/ml puromycin, 50 μg/ml zeocin and 2.5 μg/ml blasticidin (M2 and M4-CHO) or 50 μg/ml zeocin and 4 μg/ml puromycin (M3 and M5-CHO).
(§3) Cells are harvested at 80-90% confluence using Versene (GIBCO Cat# 15040-066), collected by centrifugation and seeded 18-24 hours prior to running the calcium assay at a density of 5,000-10,000 cells/well in […], clear-bottomed 384-well plates (BD Biocoat, poly-D-lysine, Cat#356663). The day of the experiment, the cells are washed with a plate washer (Bioteck Instruments, ELX 405) using bath buffer (140-mM NaCl, 4.5-mM KCl, 2-mM CaCl2, 1-mM MgCl2, 10-mM Hepes-Na, 10-mM Glucose, pH 7.4, with NaOH) containing 1 mM Probenecid. Next, the calcium dye Fluo-3 (25 μl/well of Fluo-3 μM at 4 μM, Molecular Probes F-1241, in Bath 1 buffer containing 1 mM Probenecid) is added to the 25 μl of Bath 1 remaining in each well after the plate wash and the dye is loaded at 37° C. in the tissue culture incubator for 60-90 min. The fluorescent dye is removed using the plate washer with Bath 1 containing 1 mM Probenecid, leaving 25 μl/well of this solution after the wash. Alternatively, cells can be loaded with the calcium indicator from Molecular Devices (Calcium 3 Assay Reagents, Cat # R7181) adding 5 μl of a 5× solution dye in Bath 1 containing 1 mM Probenecid (10 ml per dye flask cat# R7182 to generate a solution 20×) to 20 μl of the same buffer. After loading for 60 min, the experiment can be run without having to remove the dye.
(§4) Compounds are prepared at a 2× fold concentration in a 96-well plate (round bottom, Costar Corning cat# 3656), by reconstituting the pre-spotted compounds in bath 1 containing 1 mM probenecid. The final concentration DMSO is 0.5%, and the amount of DMSO is normalized across the assay plate. To determine an agonist action of the compounds on muscarinic receptors, the reconstituted compounds are added (25 μl compound/well) to the cell assay plate (containing 25 μl/well) using the multi-channel robotic system of the FLIPR 3 Instrument (Molecular Devices, Sunnyvale, Calif.). To determine a functional inhibitory-action of the compounds on muscarinic receptors, the reconstituted compounds are added (25 μl compound/well) to the assay plate and pre-incubated for 15 min prior to adding 25 μl of Carbachol at 3× the EC80 for each muscarinic subtype. Alternatively, the compounds can be co-applied simultaneously with the agonist. In both assay modes, the fluorescence is recorded for 60 sec (excitation wavelength is […] and emission wavelength 540 nm) using the FLIPR 3 instrument.
(§5) The potency, efficacy and selectivity of the muscarinic compounds were evaluated by screening the compound activity across the whole family (M1 to M5 cells). Compounds were also screened for activity on other proteins such as other GPCRs and ion channels to determine selectivity on M4 receptors.
(§6) Examples of activities and efficacies of the muscarinic compounds of formulae (I, Ia, and Ib) on modulating M1 and M4 receptors are shown below in Table 8. […]

M4 muscarinic receptor = target: T2, M4 muscarinic receptor (Homo sapiens, UniProt P08173); experiment: Functional mobilization of intracellular calcium (FLIPR) in CHO cells expressing M4 muscarinic receptor; format: cell-based; conditions: for M4 Activity: CHO cells expressing M4, calcium mobilization; for Emax: CHO, 100% efficacy is the maximum response obtained with the Carbachol control
T2 construct: expressed in transfected cells; host or cells: CHO (M4-CHO recombinant cell line)
T2 sequence (P08173 1-479): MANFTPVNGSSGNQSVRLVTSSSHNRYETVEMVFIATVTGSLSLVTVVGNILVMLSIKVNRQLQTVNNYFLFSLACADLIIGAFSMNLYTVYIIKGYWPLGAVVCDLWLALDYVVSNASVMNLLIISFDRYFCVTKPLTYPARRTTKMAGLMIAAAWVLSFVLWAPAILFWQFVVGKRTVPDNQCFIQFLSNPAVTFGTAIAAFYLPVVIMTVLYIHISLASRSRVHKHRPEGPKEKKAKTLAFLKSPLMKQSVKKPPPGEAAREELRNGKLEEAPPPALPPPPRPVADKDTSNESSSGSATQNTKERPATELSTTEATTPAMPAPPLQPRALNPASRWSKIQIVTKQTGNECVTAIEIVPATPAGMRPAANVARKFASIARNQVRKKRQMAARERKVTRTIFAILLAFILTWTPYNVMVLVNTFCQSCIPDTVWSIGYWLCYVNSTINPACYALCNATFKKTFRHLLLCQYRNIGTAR
Experimental: as §1, §2, §3, §4, §5, §6

## C=CCOC(=O)N1CCC(N2CCC3(C=C(C(=O)NC(CC)CC)c4ccccc43)CC2)CC1 [compound 24]
M1 muscarinic receptor
  M1 Activity: + (activity was measured to be greater than 10.0 μM)
  Emax: 25 to 100%
M4 muscarinic receptor
  M4 Activity: ++ (activity was measured to be from 2.0 μM to 10.0 μM)
  Emax: 25 to 100%

## CN(C)C(=O)C1=CC2(CCN(C3CCCCC3)CC2)c2ccccc21 [compound 61]
M1 muscarinic receptor
  M1 Activity: + (activity was measured to be greater than 10.0 μM)
  Emax: < 25%
M4 muscarinic receptor
  M4 Activity: +++ (activity was measured to be less than 2.0 μM)
  Emax: 25 to 100%

## CCC(CC)NC(=O)C1=CC2(CCN(CCCCSC)CC2)c2ccccc21 [compound 55]
M1 muscarinic receptor
  M1 Activity: + (activity was measured to be greater than 10.0 μM)
  Emax: < 25%
M4 muscarinic receptor
  M4 Activity: + (activity was measured to be greater than 10.0 μM)
  Emax: < 25%

## CCC(CC)NC(=O)C1=CC2(CCN(C3CCN(C(C)=O)CC3)CC2)c2ccccc21 [compound 10]
M1 muscarinic receptor
  M1 Activity: + (activity was measured to be greater than 10.0 μM)
  Emax: < 25%
M4 muscarinic receptor
  M4 Activity: + (activity was measured to be greater than 10.0 μM)
  Emax: < 25%

## CCOC(=O)N1CCC(N2CCC3(CC=C(C(=O)N(C)C)c4ccccc43)CC2)CC1 [compound 4, ethyl 4-(4-(dimethylcarbamoyl)-2H-spiro[naphthalene-1,4′-piperidine]-1′-yl)piperidine-1-carboxylate]
M1 muscarinic receptor
  M1 Activity: +++ (activity was measured to be less than 2.0 μM)
  Emax: 25 to 100%
M4 muscarinic receptor
  M4 Activity: +++ (activity was measured to be less than 2.0 μM)
  Emax: 25 to 100%

## CNC(=O)C1=CC2(CCN(CCC3CCSCC3)CC2)c2ccccc21 [compound 9]
M1 muscarinic receptor
  M1 Activity: + (activity was measured to be greater than 10.0 μM)
  Emax: 25 to 100%
M4 muscarinic receptor
  M4 Activity: + (activity was measured to be greater than 10.0 μM)
  Emax: < 25%

## O=C(NC1CCC1)C1=CC2(CCN(CC3CC4C=CC3C4)CC2)c2ccccc21 (stereo not shown) [compound 47]
M1 muscarinic receptor
  M1 Activity: ++ (activity was measured to be from 2.0 μM to 10.0 μM)
  Emax: 25 to 100%
M4 muscarinic receptor
  M4 Activity: +++ (activity was measured to be less than 2.0 μM)
  Emax: 25 to 100%

## CC(C)NC(=O)C1=CCC2(CCN(CCC(C)(C)C)CC2)c2ccccc21 [compound 52]
M1 muscarinic receptor
  M1 Activity: + (activity was measured to be greater than 10.0 μM)
  Emax: < 25%
M4 muscarinic receptor
  M4 Activity: + (activity was measured to be greater than 10.0 μM)
  Emax: < 25%

## CNC(=O)C1=CC2(CCN(CC3CCCCC3)CC2)c2ccccc21 [Compound No. 6]
M1 muscarinic receptor
  M1 Activity: + (activity was measured to be greater than 10.0 μM)
  Emax: 25 to 100%
M4 muscarinic receptor
  M4 Activity: +++ (activity was measured to be less than 2.0 μM)
  Emax: 25 to 100%

## CCC(CC)NC(=O)C1=CC2(CCN(C3CCCC3)CC2)c2ccccc21 [compound 17]
M1 muscarinic receptor
  M1 Activity: + (activity was measured to be greater than 10.0 μM)
  Emax: < 25%
M4 muscarinic receptor
  M4 Activity: + (activity was measured to be greater than 10.0 μM)
  Emax: 25 to 100%

## CC(C)(C)CCN1CCC2(CC=C(C(=O)N3CCCC3)c3ccccc32)CC1 [compound 11]
M1 muscarinic receptor
  M1 Activity: ++ (activity was measured to be from 2.0 μM to 10.0 μM)
  Emax: 25 to 100%
M4 muscarinic receptor
  M4 Activity: ++ (activity was measured to be from 2.0 μM to 10.0 μM)
  Emax: < 25%

## CCCC(C)NC(=O)C1=CC2(CCN(CC3CC4C=CC3C4)CC2)c2ccccc21 (stereo not shown) [compound 50]
M1 muscarinic receptor
  M1 Activity: + (activity was measured to be greater than 10.0 μM)
  Emax: < 25%
M4 muscarinic receptor
  M4 Activity: +++ (activity was measured to be less than 2.0 μM)
  Emax: 25 to 100%

## CCOC(=O)N1C2CCC1CC(N1CCC3(CC=C(C(=O)N4CCCC4)c4ccccc43)CC1)C2 (stereo not shown) [compound 5]
M1 muscarinic receptor
  M1 Activity: +++ (activity was measured to be less than 2.0 μM)
  Emax: 25 to 100%
M4 muscarinic receptor
  M4 Activity: +++ (activity was measured to be less than 2.0 μM)
  Emax: 25 to 100%

## CN(C)C(=O)C1=CC2(CCN(CCC(C)(C)C)CC2)c2ccccc21 [compound 56]
M1 muscarinic receptor
  M1 Activity: + (activity was measured to be greater than 10.0 μM)
  Emax: < 25%
M4 muscarinic receptor
  M4 Activity: +++ (activity was measured to be less than 2.0 μM)
  Emax: 25 to 100%

## CC(C)(C)CCN1CCC2(C=C(C(=O)NC3CCCCC3)c3ccccc32)CC1 [compound 25]
M1 muscarinic receptor
  M1 Activity: ++ (activity was measured to be from 2.0 μM to 10.0 μM)
  Emax: 25 to 100%
M4 muscarinic receptor
  M4 Activity: + (activity was measured to be greater than 10.0 μM)
  Emax: < 25%

## CCOC(=O)N1C2CCC1CC(N1CCC3(C=C(C(=O)NC(CC)CC)c4ccccc43)CC1)C2 (stereo not shown) [compound 75]
M1 muscarinic receptor
  M1 Activity: ++ (activity was measured to be from 2.0 μM to 10.0 μM)
  Emax: 25 to 100%
M4 muscarinic receptor
  M4 Activity: +++ (activity was measured to be less than 2.0 μM)
  Emax: 25 to 100%

## CCOC(=O)N1CCC(N2CCC3(CC=C(C(=O)N4CCCC4)c4ccccc43)CC2)CC1 [compound 43]
M1 muscarinic receptor
  M1 Activity: +++ (activity was measured to be less than 2.0 μM)
  Emax: 25 to 100%
M4 muscarinic receptor
  M4 Activity: +++ (activity was measured to be less than 2.0 μM)
  Emax: 25 to 100%

## O=C(O)C1=CC2(CCN(C3C[C@@H]4CC[C@@H]3C4)CC2)c2ccccc21 (stereo in doubt) [Compound No. 48, 1′-(bicyclo[2.2.1]heptan-2-yl)spiro[indene-1,4′-piperidine]-3-carboxylic acid]
M1 muscarinic receptor
  M1 Activity: + (activity was measured to be greater than 10.0 μM)
  Emax: 25 to 100%
M4 muscarinic receptor
  M4 Activity: + (activity was measured to be greater than 10.0 μM)
  Emax: 25 to 100%

## O=C(O)C1=CC2(CCN(CC3CCCCC3)CC2)c2ccccc21 [compound 54]
M1 muscarinic receptor
  M1 Activity: + (activity was measured to be greater than 10.0 μM)
  Emax: < 25%
M4 muscarinic receptor
  M4 Activity: + (activity was measured to be greater than 10.0 μM)
  Emax: < 25%

Reference: patent publication US7858790B2, “Modulators of muscarinic receptors” (Vertex Pharmaceuticals Incorporated, priority 2006, dated 2010)
